Values after ≈ are worked out from the molar mass of the structure shown.
Columns and labels:
[1] = tested on: Candida albicans (ATCC no. 10231); test: MIC determination by broth microdilution (NCCLS), visual scoring; assay type: cell-based; conditions: for MIC80: Candida albicans, ATCC10231, read-out: MIC80 C. albicans
Protocol: The antifungal activity of the 2,4,6-pyrimidinetrione analogs shown in Schemes 2-6 were evaluated in vitro using Candida albicans (ATCC no. 10231) and Candida glabrata (ATCC no 48435). All assays were done in accordance with NCCLS reference documents^29.
(§1) Master stock concentrations of all tested compounds were prepared to ensure that the maximum final concentration of DMSO was 1% or less. Subsequent 2-fold serial dilutions were made using sterile water to a final concentration of 1280-5.00 μg/ml. A final 10-fold dilution of each drug was made by aliquotting 0.1 mL of each drug dilution into 0.9 mL of fungal suspension in RPMI 1640 media with 10 mM HEPES buffer added (see methodology below), giving final concentrations tested in the range of 128-0.5 μg/ml.
(§2) Antifungal susceptibility studies and minimal inhibitory concentrations (MIC) values for Candida albicans (ATCC no. 10231) and Candida glabrata (ATCC no. 48435) were determined by the broth microdilution technique in accordance with NCCLS reference documents. Microdilution panels ranged from 0.5 to 128 μg/mL. All organisms were subcultured on Sabouraud agar and passaged to ensure purity and viability. The initiating inocula were prepared by picking 5-7 isolated colonies ˜1 mm in diameter from freshly prepared YM agar plates. Colonies were resuspended in sterile water, vortexed and the cell density was adjusted spectrophotometrically to the transmittance of a 0.5 McFarland standard at a wavelength of 530 nm, to yield a stock suspension of 1×10^6-5×10^6 cells/mL. The stock was allowed to hydrate for 30 minutes at room temperature. A working suspension was then made by diluting the stock 1:50 with RPMI 1640 media containing HEPES buffer. The working suspension was used for all assays. The plates were incubated at 35° C. for 48-72 hours in a humid atmosphere. Growth was scored visually. MIC values are defined as the lowest concentration of agent that prevents any discernible growth, ˜80% reduction of growth, as compared with drug-free control wells. All assays were run in parallel using either fluconazole or amphotericin B at the NCCLS recommended concentrations^29 as a drug control (Sigma-Aldrich).

[2] = tested on: Candida glabrata (ATCC no. 48435); test: as above; assay type: cell-based; conditions: for MIC80: Nakaseomyces glabratus, ATCC48435, read-out: MIC80 C. glabrata
Protocol: The antifungal activity of the 2,4,6-pyrimidinetrione analogs shown in Schemes 2-6 were evaluated in vitro using Candida albicans (ATCC no. 10231) and Candida glabrata (ATCC no 48435). All assays were done in accordance with NCCLS reference documents^29. The results of these screenings are summarized in Tables 1-9 as the minimal inhibitory concentrations that inhibited more than 80% fungal growth as compared to the positive controls in 1% DMSO and RPMI media. All MIC screens were done using a visual scoring method as opposed to spectroscopic methods of analysis, due to the physical properties of many of the compounds altering their absorbance spectra relative to the positive, negative and drug controls.
as §1, with “None of the compounds tested over the course of these studies were soluble in water and DMSO was used to dilute each compound tested. Master” for “Master”
as §2

[3] = Table 1, 5-Acyl-2,4,6-pyrimidinetriones, >80% growth inhibition, RPMI, 1% DMSO
[4] = Table 2, 5-Arylidene-2,4,6-pyrimidinetriones
[5] = Table 3, 5-Alkylated Pyrimidinetriones
[6] = Table 5, Schiff Bases of 5-acylpyrimidinetriones
[7] = Table 8, N-Acylhydrazones of 5-Acylpyrimidinetriones
[8] = Table 7, Phenylhydrazones of 5-Acylpyrimidinetriones

C/C(=N\Nc1ccc([N+](=O)[O-])cc1[N+](=O)[O-])C1C(=O)NC(=O)NC1=O [BA26, 5-{(1E)-1-[2-(2,4-Dinitrophenyl)hydrazinylidene]ethyl}pyrimidine-2,4,6-trione]
MIC80 [1]: > 125 µg/mL | MIC80 [2]: > 125 µg/mL

O=C1NC(=O)C(C(=O)c2ccc([N+](=O)[O-])cc2)C(=O)N1 [BA6]
MIC80 C. albicans [1, 3]: — (none of the 5-acyl-2,4,6-pyrimidinetriones, 5-alkylated pyrimidinetriones or the 5,5-dialkylated pyrimidinetriones showed antifungal activity through 125 μg/mL) | MIC80 C. glabrata [2, 3]: — (none of the 5-acyl-2,4,6-pyrimidinetriones, 5-alkylated pyrimidinetriones or the 5,5-dialkylated pyrimidinetriones showed antifungal activity through 125 μg/mL)

O=C1NC(=O)C(=Cc2cccc3ccccc23)C(=O)N1 [BA41]
MIC80 C. albicans [1, 4]: 125 µg/mL (≈ 469 µM) | MIC80 C. glabrata [2, 4]: — (none of the 5-acyl-2,4,6-pyrimidinetriones, 5-alkylated pyrimidinetriones or the 5,5-dialkylated pyrimidinetriones showed antifungal activity through 125 μg/mL)

CC(C)C1C(=O)NC(=O)N(c2ccccc2)C1=O (stereo not shown) [BA61]
MIC80 C. albicans [1, 5]: — (none of the 5-acyl-2,4,6-pyrimidinetriones, 5-alkylated pyrimidinetriones or the 5,5-dialkylated pyrimidinetriones showed antifungal activity through 125 μg/mL) | MIC80 C. glabrata [2, 5]: — (none of the 5-acyl-2,4,6-pyrimidinetriones, 5-alkylated pyrimidinetriones or the 5,5-dialkylated pyrimidinetriones showed antifungal activity through 125 μg/mL)

COc1ccc(C(=O)C2C(=O)NC(=O)NC2=O)cc1 [BA14]
MIC80 C. albicans [1, 3]: — (none of the 5-acyl-2,4,6-pyrimidinetriones, 5-alkylated pyrimidinetriones or the 5,5-dialkylated pyrimidinetriones showed antifungal activity through 125 μg/mL) | MIC80 C. glabrata [2, 3]: — (none of the 5-acyl-2,4,6-pyrimidinetriones, 5-alkylated pyrimidinetriones or the 5,5-dialkylated pyrimidinetriones showed antifungal activity through 125 μg/mL)

CN1C(=O)C(=Cc2ccc(O)cc2O)C(=O)N(C)C1=O [BA48]
MIC80 C. albicans [1, 4]: — (none of the 5-acyl-2,4,6-pyrimidinetriones, 5-alkylated pyrimidinetriones or the 5,5-dialkylated pyrimidinetriones showed antifungal activity through 125 μg/mL) | MIC80 C. glabrata [2, 4]: 2 µg/mL (≈ 7.24 µM)

O=C1NC(=O)C(C=Nc2ccccc2)C(=O)N1 [BA89]
MIC80 C. albicans [1, 6]: — (none of the 5-acyl-2,4,6-pyrimidinetriones, 5-alkylated pyrimidinetriones or the 5,5-dialkylated pyrimidinetriones showed antifungal activity through 125 μg/mL) | MIC80 C. glabrata [2, 6]: — (none of the 5-acyl-2,4,6-pyrimidinetriones, 5-alkylated pyrimidinetriones or the 5,5-dialkylated pyrimidinetriones showed antifungal activity through 125 μg/mL)

O=C1NC(=O)C(Cc2ccc3ccccc3c2)C(=O)N1 [BA69]
MIC80 C. albicans [1, 5]: — (none of the 5-acyl-2,4,6-pyrimidinetriones, 5-alkylated pyrimidinetriones or the 5,5-dialkylated pyrimidinetriones showed antifungal activity through 125 μg/mL) | MIC80 C. glabrata [2, 5]: — (none of the 5-acyl-2,4,6-pyrimidinetriones, 5-alkylated pyrimidinetriones or the 5,5-dialkylated pyrimidinetriones showed antifungal activity through 125 μg/mL)

CN1C(=O)C(/C=N/Nc2ccccc2)C(=O)N(C)C1=O [BA73, 1,3-dimethyl-5-[(E)-(2-phenylhydrazinylidene)methyl]pyrimidine-2,4,6-trione]
MIC80 [1]: 4 µg/mL (≈ 14.6 µM) | MIC80 [2]: 2 µg/mL (≈ 7.29 µM)

O=C1NC(=O)C(=Cc2ccco2)C(=O)N1 [BA56]
MIC80 C. albicans [1, 4]: — (none of the 5-acyl-2,4,6-pyrimidinetriones, 5-alkylated pyrimidinetriones or the 5,5-dialkylated pyrimidinetriones showed antifungal activity through 125 μg/mL) | MIC80 C. glabrata [2, 4]: — (none of the 5-acyl-2,4,6-pyrimidinetriones, 5-alkylated pyrimidinetriones or the 5,5-dialkylated pyrimidinetriones showed antifungal activity through 125 μg/mL)

O=C1NC(=O)C(=Cc2ccoc2)C(=O)N1 [BA55]
MIC80 C. albicans [1, 4]: — (none of the 5-acyl-2,4,6-pyrimidinetriones, 5-alkylated pyrimidinetriones or the 5,5-dialkylated pyrimidinetriones showed antifungal activity through 125 μg/mL) | MIC80 C. glabrata [2, 4]: — (none of the 5-acyl-2,4,6-pyrimidinetriones, 5-alkylated pyrimidinetriones or the 5,5-dialkylated pyrimidinetriones showed antifungal activity through 125 μg/mL)

O=C1NC(=O)C(C=Nc2ccc(O)cc2)C(=O)N1 [BA81]
MIC80 C. albicans [1, 6]: — (none of the 5-acyl-2,4,6-pyrimidinetriones, 5-alkylated pyrimidinetriones or the 5,5-dialkylated pyrimidinetriones showed antifungal activity through 125 μg/mL) | MIC80 C. glabrata [2, 6]: — (none of the 5-acyl-2,4,6-pyrimidinetriones, 5-alkylated pyrimidinetriones or the 5,5-dialkylated pyrimidinetriones showed antifungal activity through 125 μg/mL)

COC(=O)NN=CC1C(=O)N(C)C(=O)N(C)C1=O [BA76]
MIC80 C. albicans [1, 7]: — (none of the 5-acyl-2,4,6-pyrimidinetriones, 5-alkylated pyrimidinetriones or the 5,5-dialkylated pyrimidinetriones showed antifungal activity through 125 μg/mL) | MIC80 C. glabrata [2, 7]: — (none of the 5-acyl-2,4,6-pyrimidinetriones, 5-alkylated pyrimidinetriones or the 5,5-dialkylated pyrimidinetriones showed antifungal activity through 125 μg/mL)

CCCCN1C(=O)NC(=O)C(C(=NNc2ccc([N+](=O)[O-])cc2[N+](=O)[O-])c2ccccc2)C1=O (stereo not shown) [BA31]
MIC80 C. albicans [1, 8]: — (none of the 5-acyl-2,4,6-pyrimidinetriones, 5-alkylated pyrimidinetriones or the 5,5-dialkylated pyrimidinetriones showed antifungal activity through 125 μg/mL) | MIC80 C. glabrata [2, 8]: — (none of the 5-acyl-2,4,6-pyrimidinetriones, 5-alkylated pyrimidinetriones or the 5,5-dialkylated pyrimidinetriones showed antifungal activity through 125 μg/mL)

CN1C(=O)C(=CC=Cc2ccccc2)C(=O)N(C)C1=O [BA43]
MIC80 C. albicans [1, 4]: 62 µg/mL (≈ 229 µM) | MIC80 C. glabrata [2, 4]: 125 µg/mL (≈ 462 µM)

O=C1NC(=O)C(C(=O)c2cccc([N+](=O)[O-])c2)C(=O)N1 [BA4]
MIC80 C. albicans [1, 3]: — (none of the 5-acyl-2,4,6-pyrimidinetriones, 5-alkylated pyrimidinetriones or the 5,5-dialkylated pyrimidinetriones showed antifungal activity through 125 μg/mL) | MIC80 C. glabrata [2, 3]: — (none of the 5-acyl-2,4,6-pyrimidinetriones, 5-alkylated pyrimidinetriones or the 5,5-dialkylated pyrimidinetriones showed antifungal activity through 125 μg/mL)

O=C1NC(=O)C(=Cc2ccccc2)C(=O)N1 [BA39]
MIC80 C. albicans [1, 4]: — (none of the 5-acyl-2,4,6-pyrimidinetriones, 5-alkylated pyrimidinetriones or the 5,5-dialkylated pyrimidinetriones showed antifungal activity through 125 μg/mL) | MIC80 C. glabrata [2, 4]: — (none of the 5-acyl-2,4,6-pyrimidinetriones, 5-alkylated pyrimidinetriones or the 5,5-dialkylated pyrimidinetriones showed antifungal activity through 125 μg/mL)

O=C1NC(=O)N(c2ccccc2)C(=O)C1C(=NNc1ccc([N+](=O)[O-])cc1[N+](=O)[O-])c1ccccc1 (stereo not shown) [BA32]
MIC80 C. albicans [1, 8]: — (none of the 5-acyl-2,4,6-pyrimidinetriones, 5-alkylated pyrimidinetriones or the 5,5-dialkylated pyrimidinetriones showed antifungal activity through 125 μg/mL) | MIC80 C. glabrata [2, 8]: — (none of the 5-acyl-2,4,6-pyrimidinetriones, 5-alkylated pyrimidinetriones or the 5,5-dialkylated pyrimidinetriones showed antifungal activity through 125 μg/mL)

O=C1NC(=O)C(C(=O)c2ccc(O)cc2)C(=O)N1 [BA10]
MIC80 C. albicans [1, 3]: — (none of the 5-acyl-2,4,6-pyrimidinetriones, 5-alkylated pyrimidinetriones or the 5,5-dialkylated pyrimidinetriones showed antifungal activity through 125 μg/mL) | MIC80 C. glabrata [2, 3]: — (none of the 5-acyl-2,4,6-pyrimidinetriones, 5-alkylated pyrimidinetriones or the 5,5-dialkylated pyrimidinetriones showed antifungal activity through 125 μg/mL)

CC(=Nc1ccc(O)cc1)C1C(=O)NC(=O)NC1=O [BA87]
MIC80 C. albicans [1, 6]: — (none of the 5-acyl-2,4,6-pyrimidinetriones, 5-alkylated pyrimidinetriones or the 5,5-dialkylated pyrimidinetriones showed antifungal activity through 125 μg/mL) | MIC80 C. glabrata [2, 6]: — (none of the 5-acyl-2,4,6-pyrimidinetriones, 5-alkylated pyrimidinetriones or the 5,5-dialkylated pyrimidinetriones showed antifungal activity through 125 μg/mL)

Source: patent publication US20160235752A1, “COMPOSITIONS, METHODS OF USE, AND METHODS OF TREATMENT” (THE UNIVERSITY OF NEW ORLEANS, priority 2013, published 2016)
